Test: in vivo
Conditions: BALB/c nude, mouse, iv, total radioactivity
Procedure: To a 0.5 M NaOAc buffer (20-50 μL, pH=4.5) was added 4 μL of exemplary or comparator compound in DMSO stock solution (2000 μM) and 2 mCi ^177Lu (ITM Isotope Technologies Munich), the resulting mixture was heated to 95° C. for 15 min. The resulting product was analyzed by radio-TLC and radio-HPLC (column: Shim-pack GIST 5 μm 4.6*150 mm; buffer A: 0.2% formic acid H2O; buffer B: 0.1% formic acid acetonitrile; flow rate: 1 mL/min; gradient: 0-5 min: 10% B to 95% B; then 5-8 min: 95% B). The labelled products were used immediately or diluted by a PBS buffer containing freshly added 3 mg/mL ascorbate.
All animal care and experimental procedure were performed by following the animal protocols approved by the ethics committee of China Institute of Radiation Protection. The BALB/c nude mice (Charles River, Beijing) were utilized for these studies. Mice were below 5 per cage in sterile, microisolator cages under temperature- and humidity-controlled conditions with a 12 h light/12 h dark schedule and fed irradiated rodent chow and reverse osmosis (RO) sterile water ad libitum. In preparation for tumor cell inoculations, mice were anesthetized with isoflurane (RWD Life Science Inc.) at an induction rate of 4% and maintained at a rate of 2.5% with 0.4 L oxygen delivered via precision vaporizer and a non-rebreathing apparatus. These mice received subcutaneous rear flank injections of approximately 4×10^6 AR42J cells ([…] pancreatic cancer cell line) suspended in 200 μL of phosphate-buffered saline (PBS) and Matrigel (Corning) (1/1). Xenografted tumors were allowed to grow for ~2-4 weeks post-inoculation and ranged in mass from 0.05 to 0.50 g (average tumor size, 0.20 g). […] The mice were euthanized, and the tissues and organs were excised from the animals at 4, 24 and 72 h post-injection. The tissues and organs were weighed, counted in a PerkinElmer 2480 WIZARD2 γ counter, and the percent injected dose (% ID) and % ID/g of each organ or tissue were calculated.

What does the source list for `C[C@@H](O)[C@H](NC(=O)[C@@H]1CSSC[C@H](NC(=O)[C@@H](Cc2ccccc2)NC(=O)CN2CCN(CC(=O)O)CCN(CC(=O)O)CCN(CC(=O)O)CC2)C(=O)N[C@@H](Cc2ccc(O)cc2)C(=O)N[C@H](Cc2c[nH]c3ccccc23)C(=O)N[C@@H](CCCCN)C(=O)N[C@@H]([C@@H](C)O)C(=O)N1)C(=O)O` [^177Lu-C-1, metal not drawn, reference compound]?
tissue uptake at 4 h (in vivo, % ID/g Adrenal gland): 8.73 %ID/g; tissue uptake at 24 h (in vivo, % ID/g Adrenal gland): 0.15 %ID/g; tissue uptake at 72 h (in vivo, % ID/g Adrenal gland): 0.13 %ID/g; tissue uptake at 4 h (in vivo, % ID/g Blood): 0.02 %ID/g; tissue uptake at 24 h (in vivo, % ID/g Blood): 0.01 %ID/g; tissue uptake at 72 h (in vivo, % ID/g Blood): 0.01 %ID/g; tissue uptake at 4 h (in vivo, % ID/g Femur): 0.07 %ID/g; tissue uptake at 24 h (in vivo, % ID/g Femur): 0.11 %ID/g; tissue uptake at 72 h (in vivo, % ID/g Femur): 0.08 %ID/g; tissue uptake at 4 h (in vivo, % ID/g Heart): 0.06 %ID/g; tissue uptake at 24 h (in vivo, % ID/g Heart): 0.05 %ID/g; tissue uptake at 72 h (in vivo, % ID/g Heart): 0.04 %ID/g; tissue uptake at 4 h (in vivo, % ID/g Intestine): 0.2 %ID/g; tissue uptake at 24 h (in vivo, % ID/g Intestine): 0.46 %ID/g; tissue uptake at 72 h (in vivo, % ID/g Intestine): 0.11 %ID/g; tissue uptake at 4 h (in vivo, % ID/g Kidney): 3.88 %ID/g; tissue uptake at 24 h (in vivo, % ID/g Kidney): 1.21 %ID/g; tissue uptake at 4 h (in vivo, % ID/g Liver): 0.1 %ID/g; tissue uptake at 24 h (in vivo, % ID/g Liver): 0.07 %ID/g; tissue uptake at 72 h (in vivo, % ID/g Liver): 0.06 %ID/g; tissue uptake at 4 h (in vivo, % ID/g Lung): 0.63 %ID/g; tissue uptake at 24 h (in vivo, % ID/g Lung): 0.32 %ID/g; tissue uptake at 72 h (in vivo, % ID/g Lung): 0.21 %ID/g; tissue uptake at 4 h (in vivo, % ID/g Muscle): 0.01 %ID/g; tissue uptake at 24 h (in vivo, % ID/g Muscle): 0.02 %ID/g; tissue uptake at 72 h (in vivo, % ID/g Muscle): 0.01 %ID/g; tissue uptake at 4 h (in vivo, % ID/g Pancreas): 0.02 %ID/g; tissue uptake at 24 h (in vivo, % ID/g Pancreas): 0.16 %ID/g; tissue uptake at 72 h (in vivo, % ID/g Pancreas): 0.03 %ID/g; tissue uptake at 4 h (in vivo, % ID/g Spleen): 0.08 %ID/g; tissue uptake at 24 h (in vivo, % ID/g Spleen): 0.04 %ID/g; tissue uptake at 72 h (in vivo, % ID/g Spleen): 0.05 %ID/g; tissue uptake at 4 h (in vivo, % ID/g Stomach): 1.18 %ID/g; tissue uptake at 24 h (in vivo, % ID/g Stomach): 0.59 %ID/g; tissue uptake at 72 h (in vivo, % ID/g Stomach): 0.21 %ID/g; tissue uptake at 4 h (in vivo, % ID/g Tumor): 14 %ID/g; tissue uptake at 24 h (in vivo, % ID/g Tumor): 5.76 %ID/g; tissue uptake at 72 h (in vivo, % ID/g Tumor): 4.33 %ID/g

Which results are given for `CCCC[C@H](NC(=O)[C@H](Cc1c[nH]c2ccccc12)NC(=O)CNC(=O)[C@H](Cc1ccc(O)cc1)NC(=O)[C@H](C)NC(=O)[C@@H](CCC(=O)O)NC(=O)[C@@H](CCC(=O)O)NC(=O)[C@@H](CCC(=O)O)NC(=O)[C@@H](CCC(=O)O)NC(=O)[C@@H](CCC(=O)O)NC(=O)[C@@H](CCC(=O)O)NC(=O)CN1CCN(CC(=O)O)CCN(CC(=O)O)CCN(CC(=O)O)CC1)C(=O)N[C@@H](CC(=O)O)C(=O)N[C@@H](Cc1ccccc1)C(N)=O` [^177Lu-C-2, metal not drawn, reference compound]?
tissue uptake at 4 h (in vivo, % ID/g Blood): 0.08 %ID/g; tissue uptake at 24 h (in vivo, % ID/g Blood): 0.01 %ID/g; tissue uptake at 4 h (in vivo, % ID/g Femur): 0.12 %ID/g; tissue uptake at 24 h (in vivo, % ID/g Femur): 0.24 %ID/g; tissue uptake at 4 h (in vivo, % ID/g Heart): 0.05 %ID/g; tissue uptake at 24 h (in vivo, % ID/g Heart): 0.04 %ID/g; tissue uptake at 4 h (in vivo, % ID/g Intestine): 0.06 %ID/g; tissue uptake at 24 h (in vivo, % ID/g Intestine): 0.05 %ID/g; tissue uptake at 4 h (in vivo, % ID/g Kidney): 2.72 %ID/g; tissue uptake at 24 h (in vivo, % ID/g Kidney): 0.71 %ID/g; tissue uptake at 4 h (in vivo, % ID/g Liver): 0.15 %ID/g; tissue uptake at 24 h (in vivo, % ID/g Liver): 0.12 %ID/g; tissue uptake at 4 h (in vivo, % ID/g Lung): 0.06 %ID/g; tissue uptake at 24 h (in vivo, % ID/g Lung): 0.11 %ID/g; tissue uptake at 4 h (in vivo, % ID/g Muscle): 0.06 %ID/g; tissue uptake at 24 h (in vivo, % ID/g Muscle): 0.01 %ID/g; tissue uptake at 4 h (in vivo, % ID/g Pancreas): 0.01 %ID/g; tissue uptake at 4 h (in vivo, % ID/g Spleen): 0.06 %ID/g; tissue uptake at 24 h (in vivo, % ID/g Spleen): 0.05 %ID/g; tissue uptake at 4 h (in vivo, % ID/g Stomach): 0.21 %ID/g; tissue uptake at 24 h (in vivo, % ID/g Stomach): 0.17 %ID/g; tissue uptake at 4 h (in vivo, % ID/g Tumor): 1.07 %ID/g; tissue uptake at 24 h (in vivo, % ID/g Tumor): 0.82 %ID/g; tissue uptake at 24 h (pancreas, % ID/g Pancreas, 24 h post-injection, n=3): 0.02 %ID/g
